Assay [1] concerns the target Fibroblast growth factor receptor 1 (Homo sapiens, UniProt P11362). The assay can be described thus: Inhibition of N-terminal GST-tagged human FGFR1 cytoplasmic domain (398-822 AA) expressed in baculovirus at 10 uM using FAM-labelled peptide as substrate pre-incubated for 10 mins followed by substrate addition by mobility shift assay relative to control.
In a further assay the test system is NCI-H520. Description: Antiproliferative activity against human NCI-H520 cells assessed as inhibition of cell growth at 10 uM incubated for 48 hrs by MTT assay relative to control. In kind it is functional. Conditions: NCI-H520, 48 h.
For another assay, the system named is PC-9. The assay can be described thus: Antiproliferative activity against human PC9 cells assessed as inhibition of cell growth at 10 uM incubated for 48 hrs by MTT assay relative to control. Type of assay: functional. Conditions: PC-9, 48 h.
A further assay deals with NCI-H226. The assay can be described thus: Antiproliferative activity against human NCI-H226 cells assessed as inhibition of cell growth at 10 uM incubated for 48 hrs by MTT assay relative to control. In kind it is functional. Conditions: NCI-H226, 48 h.
Assay [2] concerns Epidermal growth factor receptor (Homo sapiens), P00533 [L858R]. The assay can be described thus: Inhibition of recombinant human EGFR L858R mutant expressed in baculovirus at 10 uM using FAM-labelled peptide as substrate pre-incubated for 10 mins followed by substrate addition by mobility shift assay relative to control.
Assay [3] has as its target T1, Epidermal growth factor receptor (Homo sapiens, UniProt P00533). Description: Inhibition of N-terminal GST-tagged human EGFR (d746-750AA) expressed in baculovirus at 10 uM using FAM-labelled peptide as substrate pre-incubated for 10 mins followed by substrate addition by mobility shift assay relative to control.
In another assay the test system is HCC827. Description: Antiproliferative activity against human HCC827 cells assessed as inhibition of cell growth at 10 uM incubated for 48 hrs by MTT assay relative to control. To be noted: HCC827, 48 h. In kind it is functional.
Another assay has as its system NCI-H1581. Description: Antiproliferative activity against human NCI-H1581 cells assessed as inhibition of cell growth at 10 uM incubated for 48 hrs by MTT assay relative to control. In kind it is functional. Conditions: NCI-H1581, 48 h.
Assay [4] concerns the target T1, Epidermal growth factor receptor. The assay can be described thus: Inhibition of N-terminal GST-tagged human EGFR cytoplasmic domain (669-1210 AA) expressed in baculovirus at 10 uM using FAM-labelled peptide as substrate pre-incubated for 10 mins followed by substrate addition by mobility shift assay relative to control.

Consider nine compounds from ChEMBL document CHEMBL4414679, “Discovery of 4,6-pyrimidinediamine derivatives as novel dual EGFR/FGFR inhibitors aimed EGFR/FGFR1-positive NSCLC” (Eur J Med Chem, 2020).

Chain of Epidermal growth factor receptor (Homo sapiens), P00533 [L858R] (P00533 whole entry L858R): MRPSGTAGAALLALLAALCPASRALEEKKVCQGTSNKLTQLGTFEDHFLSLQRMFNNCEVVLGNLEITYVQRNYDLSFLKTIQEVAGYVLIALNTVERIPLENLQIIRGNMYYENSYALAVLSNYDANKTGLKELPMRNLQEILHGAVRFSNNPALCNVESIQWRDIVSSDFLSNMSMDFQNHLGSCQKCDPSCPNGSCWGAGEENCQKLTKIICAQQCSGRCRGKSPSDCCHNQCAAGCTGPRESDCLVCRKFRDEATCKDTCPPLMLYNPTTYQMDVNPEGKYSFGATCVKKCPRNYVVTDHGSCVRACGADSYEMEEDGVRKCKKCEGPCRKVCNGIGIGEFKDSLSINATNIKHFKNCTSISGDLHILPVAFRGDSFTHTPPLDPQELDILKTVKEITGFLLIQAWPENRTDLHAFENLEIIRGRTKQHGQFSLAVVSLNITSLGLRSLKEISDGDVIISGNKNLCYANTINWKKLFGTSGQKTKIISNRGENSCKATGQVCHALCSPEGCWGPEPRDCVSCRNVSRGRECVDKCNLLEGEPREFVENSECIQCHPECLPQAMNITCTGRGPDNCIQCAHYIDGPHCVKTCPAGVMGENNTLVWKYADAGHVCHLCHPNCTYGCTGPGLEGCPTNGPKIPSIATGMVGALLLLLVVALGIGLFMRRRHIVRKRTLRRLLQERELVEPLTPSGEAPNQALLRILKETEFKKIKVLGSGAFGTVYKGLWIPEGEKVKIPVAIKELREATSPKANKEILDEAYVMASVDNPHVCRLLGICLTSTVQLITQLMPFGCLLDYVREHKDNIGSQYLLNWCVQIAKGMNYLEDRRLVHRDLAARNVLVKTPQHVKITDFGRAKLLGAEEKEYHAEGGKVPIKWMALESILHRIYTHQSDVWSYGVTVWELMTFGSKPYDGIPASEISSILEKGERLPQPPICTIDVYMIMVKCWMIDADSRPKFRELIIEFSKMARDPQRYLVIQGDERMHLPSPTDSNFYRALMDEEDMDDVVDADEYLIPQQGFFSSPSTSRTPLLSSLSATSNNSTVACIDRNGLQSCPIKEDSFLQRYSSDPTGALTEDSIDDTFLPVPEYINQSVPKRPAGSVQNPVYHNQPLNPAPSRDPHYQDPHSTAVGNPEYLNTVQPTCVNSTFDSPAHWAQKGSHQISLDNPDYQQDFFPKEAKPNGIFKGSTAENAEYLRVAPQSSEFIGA
T1 sequence (P00533 whole entry): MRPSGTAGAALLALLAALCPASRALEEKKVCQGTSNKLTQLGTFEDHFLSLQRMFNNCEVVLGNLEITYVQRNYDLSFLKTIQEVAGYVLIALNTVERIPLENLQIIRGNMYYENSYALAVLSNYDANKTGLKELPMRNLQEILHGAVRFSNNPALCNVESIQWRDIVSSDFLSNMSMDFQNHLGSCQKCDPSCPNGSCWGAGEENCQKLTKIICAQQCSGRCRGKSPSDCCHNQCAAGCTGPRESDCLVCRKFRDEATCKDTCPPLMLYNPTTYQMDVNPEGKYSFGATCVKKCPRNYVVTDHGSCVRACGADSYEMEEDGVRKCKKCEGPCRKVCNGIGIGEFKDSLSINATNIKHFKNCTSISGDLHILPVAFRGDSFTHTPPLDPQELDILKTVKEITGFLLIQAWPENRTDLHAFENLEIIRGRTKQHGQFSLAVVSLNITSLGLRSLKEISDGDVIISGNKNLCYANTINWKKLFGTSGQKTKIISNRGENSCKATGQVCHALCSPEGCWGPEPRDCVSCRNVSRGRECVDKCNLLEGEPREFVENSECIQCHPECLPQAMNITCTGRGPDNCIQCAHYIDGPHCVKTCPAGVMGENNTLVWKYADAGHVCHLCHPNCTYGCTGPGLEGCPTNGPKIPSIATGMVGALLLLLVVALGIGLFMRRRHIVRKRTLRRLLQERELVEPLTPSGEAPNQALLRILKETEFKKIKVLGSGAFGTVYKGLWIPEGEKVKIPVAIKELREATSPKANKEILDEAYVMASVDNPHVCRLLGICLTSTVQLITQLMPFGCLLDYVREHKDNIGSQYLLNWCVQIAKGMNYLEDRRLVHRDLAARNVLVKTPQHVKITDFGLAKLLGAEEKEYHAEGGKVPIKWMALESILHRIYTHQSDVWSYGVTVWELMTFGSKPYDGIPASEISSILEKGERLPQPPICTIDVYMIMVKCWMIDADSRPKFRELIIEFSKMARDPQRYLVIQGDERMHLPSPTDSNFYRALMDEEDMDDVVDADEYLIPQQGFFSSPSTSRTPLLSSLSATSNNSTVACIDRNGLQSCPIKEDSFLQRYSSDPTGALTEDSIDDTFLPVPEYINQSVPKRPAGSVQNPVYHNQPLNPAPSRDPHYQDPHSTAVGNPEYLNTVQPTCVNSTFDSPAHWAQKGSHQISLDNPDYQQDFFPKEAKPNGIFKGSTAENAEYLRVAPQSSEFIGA
Chain of Fibroblast growth factor receptor 1 (P11362 22-822 limits assumed): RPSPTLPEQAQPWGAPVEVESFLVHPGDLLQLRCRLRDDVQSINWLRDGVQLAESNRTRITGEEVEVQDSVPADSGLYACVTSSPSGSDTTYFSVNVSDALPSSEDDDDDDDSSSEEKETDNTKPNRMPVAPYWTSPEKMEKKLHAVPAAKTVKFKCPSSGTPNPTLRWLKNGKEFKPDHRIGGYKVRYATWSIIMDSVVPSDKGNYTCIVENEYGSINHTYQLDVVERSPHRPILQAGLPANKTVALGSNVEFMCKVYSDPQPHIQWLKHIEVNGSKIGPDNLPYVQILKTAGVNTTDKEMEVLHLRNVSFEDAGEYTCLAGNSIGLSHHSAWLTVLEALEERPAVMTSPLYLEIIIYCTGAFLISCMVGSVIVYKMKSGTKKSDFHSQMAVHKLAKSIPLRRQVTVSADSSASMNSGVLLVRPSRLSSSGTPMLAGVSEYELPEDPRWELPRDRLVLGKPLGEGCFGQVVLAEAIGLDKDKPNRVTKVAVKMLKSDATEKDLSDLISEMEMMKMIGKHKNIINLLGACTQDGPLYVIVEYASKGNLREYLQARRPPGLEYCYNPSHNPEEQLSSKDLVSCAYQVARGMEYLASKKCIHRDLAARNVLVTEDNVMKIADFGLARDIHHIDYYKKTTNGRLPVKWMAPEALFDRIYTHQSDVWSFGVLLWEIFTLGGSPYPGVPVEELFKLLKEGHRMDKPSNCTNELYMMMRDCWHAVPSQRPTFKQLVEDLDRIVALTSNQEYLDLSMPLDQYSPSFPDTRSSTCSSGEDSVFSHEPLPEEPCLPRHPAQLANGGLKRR

Take `O=C(Nc1cc(Nc2ccc(F)c(Cl)c2)ncn1)Nc1c(Cl)cccc1Cl`: the inhibition was determined as 27.6% in assay [1], 97% in assay [2], 96.7% in assay [3] and 94.3% in assay [4]. Further, the inhibition at 10 µM was determined as 39.5% in the assay on NCI-H520; 91.1% in the assay on PC-9; 47.3% in the assay on NCI-H226; 53.7% in the assay on HCC827; 67% with NCI-H1581.

Take `COc1cc(NC(=O)Nc2cc(Nc3cc(Br)ccc3OC)ncn2)cc(OC)c1`: the inhibition is -1.5% in [1], 52.4% in assay [2], 45.2% in [3] and 51.4% in assay [4]. For the same compound, the inhibition at 10 µM was determined as 43.5% with NCI-H520; 82.5% in the assay on PC-9; 42.7% in the assay on NCI-H226; 76.3% with HCC827; 23.1% with NCI-H1581.

With `COc1cc(NC(=O)Nc2cc(Nc3ccc(C)c(F)c3)ncn2)cc(OC)c1`, the inhibition was determined as 0.1% in assay [1], 64.2% in [2], 51.5% in assay [3] and 31.7% in assay [4]. Further, the inhibition at 10 µM turned out to be 30.6% with NCI-H520; 77.5% in the assay on PC-9; 39.7% in the assay on NCI-H226; 72% in the assay on HCC827; 38% in the assay with NCI-H1581.

Regarding `COc1cc(NC(=O)Nc2cc(Nc3cccc(C(C)(C)C)c3)ncn2)cc(OC)c1`, the inhibition turned out to be 5.2% in assay [1], 29.3% in assay [2], 10.4% in assay [3] and 17.1% in assay [4]. Also, the inhibition at 10 µM in the assay on NCI-H520 came to 13.1%; in the assay on PC-9 it was 68%; in the assay on NCI-H226, 40%; in the assay with HCC827, 48.7%; with NCI-H1581 it was 35%.

Consider `CCc1ccc(Nc2cc(NC(=O)Nc3c(Cl)cccc3Cl)ncn2)cc1`, for which the inhibition turned out to be 47.3% in assay [1], 89.4% in [2], 89.2% in assay [3] and 79% in [4]. The inhibition at 10 µM is 31.5% in the assay with NCI-H520; 70% in the assay on PC-9; 39.5% with NCI-H226; 58% in the assay with HCC827; 38.1% in the assay with NCI-H1581.

For the compound `COc1cc(NC(=O)Nc2cc(Nc3ccc(OC)c(C)c3)ncn2)cc(OC)c1`, the inhibition in assay [1] amounted to 36.6%; in assay [2] it was 46.5%; in [3] it was 54.9%; in assay [4], 74.9%. Besides, the inhibition at 10 µM with NCI-H520 was 13.5%; with PC-9, 62%; with NCI-H226, 39.7%; with HCC827, 48.3%; in the assay with NCI-H1581, 19.7%.

In the case of `CC(C)(C)c1ccc(Nc2cc(NC(=O)Nc3c(Cl)cccc3Cl)ncn2)cc1`, the inhibition in [1] came out at 30.4%; in assay [2], 71.8%; in assay [3], 63.2%; in assay [4], 48.2%. The inhibition at 10 µM in the assay with NCI-H520 was found to be 22%; in the assay with PC-9, 41.5%; in the assay on NCI-H226 it was 40%; in the assay with HCC827, 42.3%; with NCI-H1581, 71.3%.

Regarding `COc1ccc(C(F)(F)F)cc1Nc1cc(NC(=O)Nc2c(Cl)cccc2Cl)ncn1`, the inhibition turned out to be 55.4% in [1], 83.1% in assay [2], 73% in assay [3] and 77.5% in assay [4]. In addition, the inhibition at 10 µM turned out to be 33% in the assay on NCI-H520; 89% in the assay with PC-9; 60.1% in the assay on NCI-H226; 68.7% in the assay on HCC827; 69% with NCI-H1581.

Regarding `O=C(Nc1cccc(Nc2cc(Nc3cccc(C(F)(F)F)c3)ncn2)c1)C1CC1`, the inhibition at 10 µM came out at 30% with NCI-H520; 90.5% in the assay on PC-9; 52.7% with NCI-H226; 94.7% in the assay with HCC827; 26% in the assay with NCI-H1581.
